Measured values: patent USRE30451E, “Novel process for producing antibiotics bleomycin” (priority 1969, dated 1980)

Tested on: Ehrlich ascites carcinoma cells
Conditions: maximum dose level at which mice survive 100 to 200 percent of control survival days; intraperitoneally once a day for 10 days, doses 25 mg/kg to 0.19 mg/kg
`Cc1c(N)nc(C(CC(N)=O)NCC(N)C(N)=O)nc1C(=O)NC(C(=O)NC(C)C(O)C(C)C(=O)NC(C(=O)NCCc1nc(-c2nc(C(=O)NCCNCC(C)O)cs2)cs1)C(C)O)C(OC1OC(CO)C(O)C(O)C1OC1OC(CO)C(O)C(OC(N)=O)C1O)c1cnc[nH]1` (centres unmarked) [Compound 13, 2-(2-hydroxypropyl)-aminoethylamino-bleomycin] gave an ED50 of 0.39.
Molecule `Cc1c(N)nc(C(CC(N)=O)NCC(N)C(N)=O)nc1C(=O)NC(C(=O)NC(C)C(O)C(C)C(=O)NC(C(=O)NCCc1nc(-c2nc(C(=O)NCCCN(C)CCCN)cs2)cs1)C(C)O)C(OC1OC(CO)C(O)C(O)C1OC1OC(CO)C(O)C(OC(N)=O)C1O)c1cnc[nH]1` (centres unmarked) [Compound 22, 3-[N-methyl-N-(3-aminopropyl)]-aminopropylamino-bleomycin] has an ED50 of 0.19.
Work on `Cc1c(N)nc([C@H](CC(N)=O)NC[C@H](N)C(N)=O)nc1C(=O)N[C@H](C(=O)N[C@H](C)[C@@H](O)[C@H](C)C(=O)N[C@H](C(=O)NCCc1nc(-c2nc(C(=O)NCCC[S+](C)C)cs2)cs1)[C@@H](C)O)[C@@H](O[C@@H]1O[C@@H](CO)[C@@H](O)[C@H](O)[C@@H]1O[C@H]1O[C@H](CO)[C@@H](O)[C@H](OC(N)=O)[C@@H]1O)c1c[nH]cn1.[Br-]` [Compound 1, Bleomycin A2, reference compound] yielded an ED50 of 0.78.
`Cc1c(N)nc(C(CC(N)=O)NCC(N)C(N)=O)nc1C(=O)NC(C(=O)NC(C)C(O)C(C)C(=O)NC(C(=O)NCCc1nc(-c2nc(C(=O)NCCCNCCCO)cs2)cs1)C(C)O)C(OC1OC(CO)C(O)C(O)C1OC1OC(CO)C(O)C(OC(N)=O)C1O)c1cnc[nH]1` (centres unmarked) [Compound 32, 3-(3-hydroxypropyl)-aminopropylamino-bleomycin] gave an ED50 of 0.19.
Work on `CNCCCNC(=O)c1csc(-c2csc(CCNC(=O)C(NC(=O)C(C)C(O)C(C)NC(=O)C(NC(=O)c3nc(C(CC(N)=O)NCC(N)C(N)=O)nc(N)c3C)C(OC3OC(CO)C(O)C(O)C3OC3OC(CO)C(O)C(OC(N)=O)C3O)c3cnc[nH]3)C(C)O)n2)n1` (centres unmarked) [Compound 17, 3-N-methylaminopropylamino-bleomycin] yielded an ED50 of 0.19.
In the case of `Cc1c(N)nc(C(CC(N)=O)NCC(N)C(N)=O)nc1C(=O)NC(C(=O)NC(C)C(O)C(C)C(=O)NC(C(=O)NCCc1nc(-c2nc(C(=O)NCCCN3CCNCC3)cs2)cs1)C(C)O)C(OC1OC(CO)C(O)C(O)C1OC1OC(CO)C(O)C(OC(N)=O)C1O)c1cnc[nH]1` (centres unmarked) [Compound 14, 3-(piperazino)propylamino-bleomycin], the ED50 was 0.39.
`Cc1c(N)nc(C(CC(N)=O)NCC(N)C(N)=O)nc1C(=O)NC(C(=O)NC(C)C(O)C(C)C(=O)NC(C(=O)NCCc1nc(-c2nc(C(=O)NCCCN3CCCCC3)cs2)cs1)C(C)O)C(OC1OC(CO)C(O)C(O)C1OC1OC(CO)C(O)C(OC(N)=O)C1O)c1cnc[nH]1` (centres unmarked) [Compound 25, 3-(piperidino)-propylamino-bleomycin] gave an ED50 of 0.39.
Work on `Cc1c(N)nc(C(CC(N)=O)NCC(N)C(N)=O)nc1C(=O)NC(C(=O)NC(C)C(O)C(C)C(=O)NC(C(=O)NCCc1nc(-c2nc(C(=O)NCCCN3CCN(CCCN)CC3)cs2)cs1)C(C)O)C(OC1OC(CO)C(O)C(O)C1OC1OC(CO)C(O)C(OC(N)=O)C1O)c1cnc[nH]1` (centres unmarked) [Compound 28, 3-[1-{4-(3-aminopropyl)}-piperazino]propylamino-bleomycin] yielded an ED50 of 0.19.
Work on `COCCCNCCCNC(=O)c1csc(-c2csc(CCNC(=O)C(NC(=O)C(C)C(O)C(C)NC(=O)C(NC(=O)c3nc(C(CC(N)=O)NCC(N)C(N)=O)nc(N)c3C)C(OC3OC(CO)C(O)C(O)C3OC3OC(CO)C(O)C(OC(N)=O)C3O)c3cnc[nH]3)C(C)O)n2)n1` (centres unmarked) [Compound 33, 3-(3-methoxypropyl)-aminopropylaminobleomycin] yielded an ED50 of 0.19.
Work on `CCCCNCCCNCCCNC(=O)c1csc(-c2csc(CCNC(=O)C(NC(=O)C(C)C(O)C(C)NC(=O)C(NC(=O)c3nc(C(CC(N)=O)NCC(N)C(N)=O)nc(N)c3C)C(OC3OC(CO)C(O)C(O)C3OC3OC(CO)C(O)C(OC(N)=O)C3O)c3cnc[nH]3)C(C)O)n2)n1` (centres unmarked) [Compound 12, 3-(3-N-butyl-aminopropyl)-aminopropylamino-bleomycin] yielded an ED50 of 0.19.
For `Cc1c(N)nc(C(CC(N)=O)NCC(N)C(N)=O)nc1C(=O)NC(C(=O)NC(C)C(O)C(C)C(=O)NC(C(=O)NCCc1nc(-c2nc(C(=O)NCCc3cnc[nH]3)cs2)cs1)C(C)O)C(OC1OC(CO)C(O)C(O)C1OC1OC(CO)C(O)C(OC(N)=O)C1O)c1cnc[nH]1` (centres unmarked) [Compound 42, 2-(4-imidazolyl)-ethylamino-bleomycin], the ED50 was 0.78.
With `Cc1c(N)nc(C(CC(N)=O)NCC(N)C(N)=O)nc1C(=O)NC(C(=O)NC(C)C(O)C(C)C(=O)NC(C(=O)NCCc1nc(-c2nc(C(=O)NCCC[N+](C)(C)C)cs2)cs1)C(C)O)C(OC1OC(CO)C(O)C(O)C1OC1OC(CO)C(O)C(OC(N)=O)C1O)c1cnc[nH]1` (centres unmarked) [Compound 20, 3-(N,N,N-trimethyl)-aminopropylamino-bleomycin] the ED50 was 0.19.
Molecule `Cc1c(N)nc(C(CC(N)=O)NCC(N)C(N)=O)nc1C(=O)NC(C(=O)NC(C)C(O)C(C)C(=O)NC(C(=O)NCCc1nc(-c2nc(C(=O)NCCCNCCCNC3CCCCC3)cs2)cs1)C(C)O)C(OC1OC(CO)C(O)C(O)C1OC1OC(CO)C(O)C(OC(N)=O)C1O)c1cnc[nH]1` (centres unmarked) [Compound 39, 3-(3-cyclohexylaminopropyl)-aminopropylamino bleomycin] has an ED50 of 0.19.
`Cc1c(N)nc(C(CC(N)=O)NCC(N)C(N)=O)nc1C(=O)NC(C(=O)NC(C)C(O)C(C)C(=O)NC(C(=O)NCCc1nc(-c2nc(C(=O)NCCN(C)C)cs2)cs1)C(C)O)C(OC1OC(CO)C(O)C(O)C1OC1OC(CO)C(O)C(OC(N)=O)C1O)c1cnc[nH]1` (centres unmarked) [Compound 9, 3-N,N-dimethylaminoethylamino-bleomycin] showed an ED50 of 0.39.
`CCN(CC)CCCNC(=O)c1csc(-c2csc(CCNC(=O)C(NC(=O)C(C)C(O)C(C)NC(=O)C(NC(=O)c3nc(C(CC(N)=O)NCC(N)C(N)=O)nc(N)c3C)C(OC3OC(CO)C(O)C(O)C3OC3OC(CO)C(O)C(OC(N)=O)C3O)c3cnc[nH]3)C(C)O)n2)n1` (centres unmarked) [Compound 11, 3,-N,N-diethylaminopropylamino-bleomycin] gave an ED50 of 0.19.
For `Cc1c(N)nc(C(CC(N)=O)NCC(N)C(N)=O)nc1C(=O)NC(C(=O)NC(C)C(O)C(C)C(=O)NC(C(=O)NCCc1nc(-c2nc(C(=O)NCCCN3CCOCC3)cs2)cs1)C(C)O)C(OC1OC(CO)C(O)C(O)C1OC1OC(CO)C(O)C(OC(N)=O)C1O)c1cnc[nH]1` (centres unmarked) [Compound 26, 3-(morpholino)-propylamoni-bleomycin], the ED50 was 0.78.
Molecule `Cc1c(N)nc(C(CC(N)=O)NCC(N)C(N)=O)nc1C(=O)NC(C(=O)NC(C)C(O)C(C)C(=O)NC(C(=O)NCCc1nc(-c2nc(C(=O)NCCCN(C)C)cs2)cs1)C(C)O)C(OC1OC(CO)C(O)C(O)C1OC1OC(CO)C(O)C(OC(N)=O)C1O)c1cnc[nH]1` (centres unmarked) [Compound 19, 3-(N,N-dimethyl)-aminopropylamino-bleomycin] has an ED50 of 0.39.
`Cc1c(N)nc(C(CC(N)=O)NCC(N)C(N)=O)nc1C(=O)NC(C(=O)NC(C)C(O)C(C)C(=O)NC(C(=O)NCCc1nc(-c2nc(C(=O)NCC(C)N)cs2)cs1)C(C)O)C(OC1OC(CO)C(O)C(O)C1OC1OC(CO)C(O)C(OC(N)=O)C1O)c1cnc[nH]1` (centres unmarked) [Compound 16, 2-aminopropylamino-bleomycin] gave an ED50 of 0.39.
For `CO[C@@]12[C@H](COC(N)=O)C3=C(C(=O)C(C)=C(N)C3=O)N1C[C@@H]1N[C@@H]12` [Mytomycin C, reference compound], the ED50 was 0.39.
`Cc1c(N)nc(C(CC(N)=O)NCC(N)C(N)=O)nc1C(=O)NC(C(=O)NC(C)C(O)C(C)C(=O)NC(C(=O)NCCc1nc(-c2nc(C(=O)NCCCNCCCN3CCCC3)cs2)cs1)C(C)O)C(OC1OC(CO)C(O)C(O)C1OC1OC(CO)C(O)C(OC(N)=O)C1O)c1cnc[nH]1` (centres unmarked) [Compound 29, 3-(3-pyrrolidinopropyl)-aminopropylamino-bleomycin] gave an ED50 of 0.09.
Work on `Cc1c(N)nc(C(CC(N)=O)NCC(N)C(N)=O)nc1C(=O)NC(C(=O)NC(C)C(O)C(C)C(=O)NC(C(=O)NCCc1nc(-c2nc(C(=O)NCCCNC3CCCCC3)cs2)cs1)C(C)O)C(OC1OC(CO)C(O)C(O)C1OC1OC(CO)C(O)C(OC(N)=O)C1O)c1cnc[nH]1` (centres unmarked) [Compound 38, 3-cyclohexylaminopropylamino-bleomycin] yielded an ED50 of 0.39.
Molecule `Cc1c(N)nc(C(CC(N)=O)NCC(N)C(N)=O)nc1C(=O)NC(C(=O)NC(C)C(O)C(C)C(=O)NC(C(=O)NCCc1nc(-c2nc(C(=O)NCCCNCCCN3CCCCC3)cs2)cs1)C(C)O)C(OC1OC(CO)C(O)C(O)C1OC1OC(CO)C(O)C(OC(N)=O)C1O)c1cnc[nH]1` (centres unmarked) [Compound 30, 3-(3-piperidinopropyl)-aminopropylamino-bleomycin] has an ED50 of 0.39.
For `Cc1c(N)nc(C(CC(N)=O)NCC(N)C(N)=O)nc1C(=O)NC(C(=O)NC(C)C(O)C(C)C(=O)NC(C(=O)NCCc1nc(-c2nc(C(=O)NCCCNCCCN3CCOCC3)cs2)cs1)C(C)O)C(OC1OC(CO)C(O)C(O)C1OC1OC(CO)C(O)C(OC(N)=O)C1O)c1cnc[nH]1` (centres unmarked) [Compound 31, 3-(3-morpholinopropyl)-aminopropylamino-bleomycin], the ED50 was 0.19.
`Cc1c(N)nc(C(CC(N)=O)NCC(N)C(N)=O)nc1C(=O)NC(C(=O)NC(C)C(O)C(C)C(=O)NC(C(=O)NCCc1nc(-c2nc(C(=O)NCCCN3CCCC3)cs2)cs1)C(C)O)C(OC1OC(CO)C(O)C(O)C1OC1OC(CO)C(O)C(OC(N)=O)C1O)c1cnc[nH]1` (centres unmarked) [Compound 24, 3-(pyrrolidino)-propylamino-bleomycin] showed an ED50 of 0.39.
With `Cc1c(N)nc(C(CC(N)=O)NCC(N)C(N)=O)nc1C(=O)NC(C(=O)NC(C)C(O)C(C)C(=O)NC(C(=O)NCCc1nc(-c2nc(C(=O)NCC3CCNCC3)cs2)cs1)C(C)O)C(OC1OC(CO)C(O)C(O)C1OC1OC(CO)C(O)C(OC(N)=O)C1O)c1cnc[nH]1` (centres unmarked) [Compound 41, 4-piperidylmethylamino-bleomycin] the ED50 was 0.78.

Tested on: not given
Conditions: tumour-inoculated ICR/JCL mice, intraperitoneally once a day for 10 days, doses 25 mg/kg to 0.19 mg/kg, Behres-Karber's method, observed up to 50 days
In the case of `COCCCNCCCNC(=O)c1csc(-c2csc(CCNC(=O)C(NC(=O)C(C)C(O)C(C)NC(=O)C(NC(=O)c3nc(C(CC(N)=O)NCC(N)C(N)=O)nc(N)c3C)C(OC3OC(CO)C(O)C(O)C3OC3OC(CO)C(O)C(OC(N)=O)C3O)c3cnc[nH]3)C(C)O)n2)n1` (centres unmarked) [Compound 33, 3-(3-methoxypropyl)-aminopropylaminobleomycin], the LD50 was 7.5.
